Our source for the inhibition values is US20090270361A1, “Substituted pyrazole derivatives and use thereof” (Takeda Pharmaceutical Company Limited, priority 2008, published 2009).

Positions count from the first letter of the chain named.

Test [1] addresses T1, wild type androgen receptor (AR) (Homo sapiens, UniProt P10275).
T1 sequence (P10275 1-920): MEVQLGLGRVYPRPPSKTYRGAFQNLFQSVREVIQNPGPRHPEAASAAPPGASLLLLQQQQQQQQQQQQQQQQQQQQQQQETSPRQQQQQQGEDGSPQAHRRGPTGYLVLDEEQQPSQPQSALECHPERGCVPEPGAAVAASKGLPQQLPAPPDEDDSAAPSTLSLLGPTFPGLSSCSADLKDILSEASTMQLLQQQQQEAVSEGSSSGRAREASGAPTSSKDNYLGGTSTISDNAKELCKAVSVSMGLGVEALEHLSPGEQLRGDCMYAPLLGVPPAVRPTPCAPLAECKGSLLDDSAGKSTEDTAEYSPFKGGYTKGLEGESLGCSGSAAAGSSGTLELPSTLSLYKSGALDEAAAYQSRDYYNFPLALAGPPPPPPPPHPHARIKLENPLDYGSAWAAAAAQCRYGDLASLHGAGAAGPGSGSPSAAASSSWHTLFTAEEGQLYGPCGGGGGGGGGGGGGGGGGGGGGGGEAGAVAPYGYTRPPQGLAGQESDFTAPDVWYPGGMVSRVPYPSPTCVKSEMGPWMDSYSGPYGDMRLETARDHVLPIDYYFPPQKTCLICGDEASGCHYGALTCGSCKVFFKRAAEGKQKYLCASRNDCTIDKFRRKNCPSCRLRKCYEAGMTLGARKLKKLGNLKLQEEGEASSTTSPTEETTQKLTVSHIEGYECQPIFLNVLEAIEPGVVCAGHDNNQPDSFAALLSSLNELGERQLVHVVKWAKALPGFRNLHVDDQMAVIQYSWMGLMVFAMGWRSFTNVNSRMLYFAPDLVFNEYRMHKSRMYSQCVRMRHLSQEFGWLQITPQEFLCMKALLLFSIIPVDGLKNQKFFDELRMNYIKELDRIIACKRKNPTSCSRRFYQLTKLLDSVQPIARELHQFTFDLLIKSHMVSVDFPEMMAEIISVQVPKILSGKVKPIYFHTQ
Kind of test: AR-binding inhibition test (wild type), radio-labeled Mibolerone displacement. The conditions noted are these: read-out: inhibition rate, wild type. As for the experimental part:
(§1) AR-Binding Inhibition Test (Wild Type and LNCaP Type)
(§2) To a solution of wild type or LNCaP type mutant androgen receptor (AR) was added 3 nM radio-labeled Mibolerone and final concentration 1 μM of the compound. The mixture was incubated at 4° C. for 3 hours, and B (Bound) and F (Free) Mibolerones were separated by the dextran/charcoal method. The label count of B was measured and the inhibition rate of the compound was calculated.

Test [2] addresses T2, LNCaP type mutant androgen receptor (AR) (Homo sapiens, UniProt P10275, T878A).
T2 sequence (P10275 1-920 T878A): T1 sequence (P10275 1-920) with T878A
Kind of test: AR-binding inhibition test (LNCaP type), radio-labeled Mibolerone displacement. The conditions noted are these: read-out: inhibition rate, LNCaP type. The procedure:
as §1, §2

Test [3] relates to Human prostate cancer cells LNCaP-FGC. Nature of the test: Prostate specific antigen (PSA) production inhibition test in prostate cancer cells. The test is classed as cell-based. The conditions noted are these: Homo sapiens, 72 h, read-out: PSA production inhibitory rate (%).
The target in another test is T3, mutant AR (W741C) (Homo sapiens, UniProt P10275, W742C).
T3 construct: expressed in transfected cells; host or cells: Cos-7
T3 sequence (P10275 1-920 W742C): T1 sequence (P10275 1-920) with W742C
Nature of the test: AR transcription inhibition test (luciferase reporter in Cos-7 cells). The class given is cell-based. The conditions noted are these: compound 1 μM; DHT 0.1 μM; Cos-7 cells cotransfected with mutant AR (W741C) and androgen responsive luciferase reporter; 24 hr; relative to control (0.1 μM DHT); read-out: AR transcription inhibitory rate (%). The procedure:
AR Transcription Inhibition Test
Cos-7 cells (5,000,000 cells) were inoculated to a flask, and incubated in a culture medium (DMEM +10% Dextran Charcoal (DCC)-Fetal Bovine Serum (FBS) and 2 mM glutamine) for 24 hours. Then, a vector DNA harboring mutant AR (W741C) and a vector DNA containing a luciferase gene bound at the downstream of an androgen responsive promoter were cotransfected by a liposome method. After 4 hr, the medium was changed and, after culture for 3 hr, DHT (dihydrotestosterone) at the final concentration of 0.1 μM and the compound at the final concentration of 1 μM were added. After further culture for 24 hr, the luciferase activity was measured, and the AR transcription inhibitory activity of the compound was examined.

Turning to `Cc1nn(-c2ccc(C#N)c(Cl)c2)c(C)c1Cc1ccc(C(=O)N2CC(O)C2)cc1` [Example 363, 2-chloro-4-(4-{4-[(3-hydroxyazetidin-1-yl)carbonyl]benzyl}-3,5-dimethyl-1H-pyrazol-1-yl)benzonitrile], the inhibition at 1 µM is 73% in test [1], 79% in test [2], 100% in test [3] and 23% at mutant AR (W741C).
